According to patent publication US6472348B1, “Pyridone derivatives and herbicides” (Kumiai Chemical Industry Co., Ltd., priority 1996, dated 2002):

How the values were obtained:
Assay type in all cases: in vivo
Set-up in all cases: scale not given here
cotton (Go) = assay: Test Example 4: crop plant selectivity by upland field soil treatment (cotton), phytotoxicity; settings: evaluated 21st day after application
In short: (§1)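 Cotton is sown alongside weeds in pots of sand, covered with soil, and the soil surface is treated. After greenhouse growth, herbicidal activity and phytotoxicity are graded on the 21st day.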

China jute (Ab) = assay: Test Example 4: crop plant selectivity by upland field soil treatment (cotton), herbicidal effects; settings: evaluated 21st day after application
In short: as §1

[1] = system: common lambsquarters (Ch); assay: as above; settings: evaluated 21st day after application
In short: as §1

green foxtail (Se) [2] = assay: as above; settings: evaluated 21st day after application
In short: as §1

pale smartweed (Po) = assay: as above; settings: evaluated 21st day after application
In short: as §1

slender amaranth (Am) [3] = assay: as above; settings: evaluated 21st day after application
In short: as §1

wheat (Tr) = assay: Test Example 5: crop plant selectivity by upland field soil treatment (wheat), phytotoxicity; settings: 21st day after application
In short: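 Upland soil-treatment selectivity test: crop and weed seeds are sown together in sand-filled pots, soil-covered, then treated and grown under glass until rating at 21 days.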

slender amaranth (Am) [4] = assay: Test Example 11: crop plant selectivity by upland field foliage treatment (corn), herbicidal effects; settings: dose 1.6 g ai/10a
In short: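 Corn with pale smartweed, slender amaranth, common lambsquarters and China jute sown in sand-filled pots and grown 2 weeks in a greenhouse before foliage treatment. Herbicidal effect and crop phytotoxicity scored on day 14 after treatment against a rating standard.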

green foxtail (Se) [5] = assay: Test Example 7: crop plant selectivity by upland field soil treatment (corn), herbicidal effects; settings: 21st day after application
In short: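 Greenhouse pot test in sand with soil cover over seeds of corn and weeds sown together; scored 21 d after treatment.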

[6] = slender amaranth, foliage treatment, evaluated on 14th day after treatment, index per Table 47

| Structure (SMILES) | Phytotoxicity Go (cotton (Go); dose 1.6 g ai/10 a) | Phytotoxicity Go (cotton (Go); dose 6.3 g ai/10 a) | Herbicidal effects Ab (China jute (Ab); dose 1.6 g ai/10 a) | Herbicidal effects Ab (China jute (Ab); dose 6.3 g ai/10 a) | Herbicidal effects Ch ([1]; dose 1.6 g ai/10 a) | Herbicidal effects Ch ([1]; dose 6.3 g ai/10 a) | Herbicidal effects Se (green foxtail (Se) [2]; dose 1.6 g ai/10 a) | Herbicidal effects Se (green foxtail (Se) [2]; dose 6.3 g ai/10 a) | Herbicidal effects Po (pale smartweed (Po); dose 1.6 g ai/10 a) | Herbicidal effects Po (pale smartweed (Po); dose 6.3 g ai/10 a) | Herbicidal effects Am (slender amaranth (Am) [3]; dose 1.6 g ai/10 a) | Herbicidal effects Am (slender amaranth (Am) [3]; dose 6.3 g ai/10 a) | Phytotoxicity Tr (wheat (Tr); dose 1.6 g ai/10a) | Herbicidal effects Am (slender amaranth (Am) [4]; [6]) | Herbicidal effects Se (green foxtail (Se) [5]; dose 1.6 g ai/10a) | Herbicidal effects Se (green foxtail (Se) [5]; dose 6.3 g ai/10a) | Phytotoxicity Tr (wheat (Tr); dose 6.3 g ai/10a) | Herbicidal effects Am (slender amaranth (Am) [4]; upland field foliage treatment (corn test), 14th day after treatment) |
| --- | --- | --- | --- | --- | --- | --- | --- | --- | --- | --- | --- | --- | --- | --- | --- | --- | --- | --- |
| C#CC(C)Oc1cc(-c2cn(C)c(C(F)(F)F)cc2=O)c(F)cc1Cl (racemic) [Compound 6-10] | 0 | 1 | 4 | 5 | 5 | 5 | 4 | 5 | 5 | 5 | 5 | 5 | 0 | 5 |  |  |  |  |
| COc1cc(-c2ccc(C(F)(F)F)n(C)c2=O)c(F)cc1Cl [1-15] | 0 | 1 | 5 | 5 | 5 | 5 | 5 | 5 | 5 | 5 | 5 | 5 | 2 |  | 5 |  |  |  |
| C#CC(C)Oc1cc(-c2ccc(C(F)(F)F)n(C)c2=O)c(F)cc1Cl (centres unmarked) [1-17] | 0 | 0 | 5 | 4 | 5 | 5 | 5 | 5 | 5 | 5 | 5 | 5 | 1 |  | 5 | 5 |  |  |
| CC(C)Sc1cc(-c2ccc(C(F)(F)F)n(C)c2=O)c(F)cc1Cl [1-43] |  | 0 |  | 4 |  | 5 |  | 5 |  | 5 |  | 5 |  |  |  | 5 | 1 |  |
| C#CCSc1cc(-c2ccc(C(F)(F)F)n(C)c2=O)c(F)cc1Cl [1-44] |  | 1 |  | 5 |  | 5 |  | 5 |  | 5 |  | 5 |  |  |  | 5 | 1 |  |
| Cc1cc(-c2ccc(C(F)(F)F)n(C)c2=O)c(F)cc1Cl [1-90] |  | 1 |  | 5 |  | 5 |  | 5 |  | 5 |  | 5 |  |  | 5 | 5 | 1 |  |
| COCSc1cc(-c2ccc(C(F)(F)F)n(C)c2=O)c(F)cc1Cl [1-91] | 0 | 1 | 5 | 5 | 5 | 5 | 5 | 5 | 5 | 5 | 5 | 5 | 1 |  | 5 | 5 |  |  |
| Cn1c(C(F)(F)F)ccc(-c2cc(Cl)c(Cl)cc2F)c1=O [1-136] |  | 1 |  | 5 |  | 5 |  | 5 |  | 5 |  | 5 | 1 |  | 5 |  | 2 |  |
| Cn1c(C(F)(F)F)ccc(-c2cc(OCC(F)(F)F)c(Cl)cc2F)c1=O [1-155] | 0 | 0 | 5 | 5 | 5 | 5 | 5 | 5 | 5 | 5 | 5 | 5 | 1 |  | 5 | 5 | 2 |  |
| Cn1c(C(F)(F)F)ccc(-c2cc(OCC3CC3)c(Cl)cc2F)c1=O [1-160] |  | 1 |  | 5 |  | 5 |  | 5 |  | 5 |  | 5 |  |  |  | 5 | 2 |  |
| CCOCOc1cc(-c2ccc(C(F)(F)F)n(C)c2=O)c(F)cc1Cl [1-181] |  | 0 |  | 5 |  | 5 |  | 5 |  | 5 |  | 5 |  |  |  |  | 1 | 5 |
| C#CC(O)c1cc(-c2ccc(C(F)(F)F)n(C)c2=O)c(F)cc1Cl (centres unmarked) [Compound 1-202] | 1 | 1 | 5 | 5 | 5 | 5 | 5 | 5 | 5 | 5 | 5 | 5 | 1 |  | 5 |  |  |  |
| C=CCN1C(=O)COc2cc(F)c(-c3ccc(C(F)(F)F)n(C)c3=O)cc21 [Compound 2-7] | 0 | 1 | 5 | 5 | 4 | 5 | 4 | 5 | 5 | 5 | 5 | 5 | 0 |  |  |  |  |  |
| Cc1cc2c(-c3ccc(C(F)(F)F)n(C)c3=O)c(F)cc(Cl)c2o1 [Compound 4-1] | 0 | 1 | 5 | 5 | 5 | 5 | 5 | 5 | 5 | 5 | 5 | 5 | 1 |  | 5 | 5 | 2 |  |
| CCc1cc2c(-c3ccc(C(F)(F)F)n(C)c3=O)c(F)cc(Cl)c2o1 [Compound 4-2] | 1 | 2 | 5 | 5 | 5 | 5 | 5 | 5 | 5 | 5 | 5 | 5 | 1 |  | 5 | 5 |  |  |
| C#CCN1C(=O)COc2cc(F)c(-c3cn(C)c(C(F)(F)F)cc3=O)cc21 [Compound 7-1] |  | 1 |  | 5 |  |  |  | 5 |  | 5 |  | 5 |  | 5 |  |  | 2 |  |
| C#CCn1c(=O)sc2cc(F)c(-c3ccc(C(F)(F)F)n(C)c3=O)cc21 [Compound No. 3-1, 3-[6-fluoro-3-(2-propynyl)-benzothiazolin-2-on-5-yl]-1-methyl-6-trifluoromethyl-2(1H)-pyridone] | 0 | 1 | 5 | 5 | 5 | 5 | 5 | 5 | 5 | 5 | 5 | 5 |  |  | 5 | 5 | 1 |  |
| Cn1cc(-c2cc(Oc3ccccc3)c(Cl)cc2F)c(=O)cc1C(F)(F)F [Compound No. 6-19, 5-(4-chloro-2-fluoro-5-phenoxyphenyl)-1-methyl-2-trifluoromethyl-4(1H)-pyridone] | 0 | 0 | 3 | 5 | 5 | 5 | 5 | 5 | 5 | 5 | 5 | 5 | 0 |  |  |  | 0 |  |
